Among the data in ChEMBL document CHEMBL5291721, “A preclinical secondary pharmacology resource illuminates target-adverse drug reaction associations of marketed drugs” (Nat Commun, 2023) are AC50 values, retold here.

Some results are limits rather than exact numbers.

Some targets named below: Melanocortin receptor 3 (Homo sapiens, UniProt P41968); Adenosine receptor A2a (Homo sapiens, UniProt P29274); Motilin receptor (Homo sapiens, UniProt O43193).
A further test has as its target Acetylcholinesterase (Homo sapiens, UniProt P22303). The format is functional.
In test [1] the target is Voltage-gated inwardly rectifying potassium channel KCNH2 (Homo sapiens, UniProt Q12809). In kind it is functional.
Voltage-gated inwardly rectifying potassium channel KCNH2, sequence (Q12809 whole entry): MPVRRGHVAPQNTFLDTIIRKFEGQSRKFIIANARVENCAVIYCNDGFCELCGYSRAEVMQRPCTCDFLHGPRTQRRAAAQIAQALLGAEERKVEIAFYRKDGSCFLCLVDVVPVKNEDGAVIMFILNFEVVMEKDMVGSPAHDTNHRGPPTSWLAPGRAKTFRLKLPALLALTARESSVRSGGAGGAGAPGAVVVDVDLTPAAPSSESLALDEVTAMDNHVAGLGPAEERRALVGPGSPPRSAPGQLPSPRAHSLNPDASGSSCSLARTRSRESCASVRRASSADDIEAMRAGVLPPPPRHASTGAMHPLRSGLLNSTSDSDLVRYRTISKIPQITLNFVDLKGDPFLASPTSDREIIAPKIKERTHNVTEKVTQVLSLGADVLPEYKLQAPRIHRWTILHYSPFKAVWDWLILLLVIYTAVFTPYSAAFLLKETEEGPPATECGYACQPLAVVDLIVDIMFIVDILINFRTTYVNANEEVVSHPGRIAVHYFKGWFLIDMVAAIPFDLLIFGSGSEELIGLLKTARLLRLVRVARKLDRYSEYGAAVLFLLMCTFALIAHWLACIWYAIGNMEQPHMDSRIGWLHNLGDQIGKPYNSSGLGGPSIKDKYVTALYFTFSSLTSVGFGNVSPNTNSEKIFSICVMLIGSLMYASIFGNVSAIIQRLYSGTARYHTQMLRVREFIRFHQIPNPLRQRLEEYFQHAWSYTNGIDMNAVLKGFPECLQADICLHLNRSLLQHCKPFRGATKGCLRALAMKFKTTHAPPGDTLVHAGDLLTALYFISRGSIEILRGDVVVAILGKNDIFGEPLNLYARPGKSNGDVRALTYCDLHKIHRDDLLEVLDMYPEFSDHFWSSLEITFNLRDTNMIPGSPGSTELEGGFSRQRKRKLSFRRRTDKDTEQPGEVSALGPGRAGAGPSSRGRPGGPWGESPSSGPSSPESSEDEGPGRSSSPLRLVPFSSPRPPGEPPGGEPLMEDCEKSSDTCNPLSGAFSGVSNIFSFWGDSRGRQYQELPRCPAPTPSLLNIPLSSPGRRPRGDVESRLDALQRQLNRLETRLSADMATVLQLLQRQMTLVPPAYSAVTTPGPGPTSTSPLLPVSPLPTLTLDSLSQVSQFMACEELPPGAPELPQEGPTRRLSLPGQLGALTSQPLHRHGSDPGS
Test [2] has as its target T1, Alpha-2C adrenergic receptor (Homo sapiens, UniProt P18825).
T1 sequence (P18825 whole entry): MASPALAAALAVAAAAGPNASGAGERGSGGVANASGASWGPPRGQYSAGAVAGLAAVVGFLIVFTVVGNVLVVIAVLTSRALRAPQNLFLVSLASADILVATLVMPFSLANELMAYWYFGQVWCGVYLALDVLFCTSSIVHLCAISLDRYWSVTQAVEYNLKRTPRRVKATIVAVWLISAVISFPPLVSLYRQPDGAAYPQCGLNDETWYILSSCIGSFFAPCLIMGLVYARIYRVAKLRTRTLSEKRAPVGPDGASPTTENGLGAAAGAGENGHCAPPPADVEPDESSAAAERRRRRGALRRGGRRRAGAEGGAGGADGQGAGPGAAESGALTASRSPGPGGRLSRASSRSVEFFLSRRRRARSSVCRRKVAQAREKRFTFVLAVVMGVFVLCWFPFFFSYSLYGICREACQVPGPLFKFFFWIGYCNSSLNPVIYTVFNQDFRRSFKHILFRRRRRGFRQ
The format is functional.

The next test addresses T2, Adenosine receptor A1 (Homo sapiens, UniProt P30542).
T2 sequence (P30542 whole entry): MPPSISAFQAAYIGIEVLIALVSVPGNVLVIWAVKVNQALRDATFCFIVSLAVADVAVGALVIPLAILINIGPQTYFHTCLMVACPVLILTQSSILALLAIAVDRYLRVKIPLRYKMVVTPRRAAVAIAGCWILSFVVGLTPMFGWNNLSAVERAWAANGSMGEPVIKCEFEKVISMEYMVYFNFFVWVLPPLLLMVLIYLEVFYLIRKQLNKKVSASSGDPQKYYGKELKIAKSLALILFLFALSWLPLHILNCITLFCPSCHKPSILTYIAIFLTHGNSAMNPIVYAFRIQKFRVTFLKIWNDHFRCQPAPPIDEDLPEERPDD

Test [3] has as its target T3, Alpha-2A adrenergic receptor (Homo sapiens, UniProt P08913).
T3 sequence (P08913 whole entry): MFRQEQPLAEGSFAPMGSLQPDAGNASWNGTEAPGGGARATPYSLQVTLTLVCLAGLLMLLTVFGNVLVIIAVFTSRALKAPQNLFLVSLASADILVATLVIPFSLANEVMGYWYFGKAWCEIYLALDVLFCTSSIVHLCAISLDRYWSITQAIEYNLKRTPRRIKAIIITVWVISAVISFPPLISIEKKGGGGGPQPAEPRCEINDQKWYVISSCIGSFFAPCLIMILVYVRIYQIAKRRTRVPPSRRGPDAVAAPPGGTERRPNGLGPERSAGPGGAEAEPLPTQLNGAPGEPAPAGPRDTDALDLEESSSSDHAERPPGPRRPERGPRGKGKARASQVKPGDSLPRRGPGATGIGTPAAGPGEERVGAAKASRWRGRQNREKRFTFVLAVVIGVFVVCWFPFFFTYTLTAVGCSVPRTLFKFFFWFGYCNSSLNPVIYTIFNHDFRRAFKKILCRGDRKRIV
The format is functional, cell-based.

The target of the next test is Histamine H2 receptor (Homo sapiens, UniProt P25021). In kind it is functional, cell-based.
Histamine H2 receptor, sequence (P25021 whole entry): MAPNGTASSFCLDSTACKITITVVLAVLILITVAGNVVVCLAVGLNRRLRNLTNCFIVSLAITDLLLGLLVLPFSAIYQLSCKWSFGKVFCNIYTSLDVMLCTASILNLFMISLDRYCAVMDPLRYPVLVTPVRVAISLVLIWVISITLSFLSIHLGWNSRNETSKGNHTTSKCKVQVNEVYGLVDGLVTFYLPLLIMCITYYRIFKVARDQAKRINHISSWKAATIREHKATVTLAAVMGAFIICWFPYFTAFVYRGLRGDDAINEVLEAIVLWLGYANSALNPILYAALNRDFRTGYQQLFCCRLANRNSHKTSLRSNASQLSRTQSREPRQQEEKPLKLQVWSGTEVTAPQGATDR
Test [4] concerns the target T4, 5-hydroxytryptamine receptor 1A (Homo sapiens, UniProt P08908).
T4 sequence (P08908 whole entry): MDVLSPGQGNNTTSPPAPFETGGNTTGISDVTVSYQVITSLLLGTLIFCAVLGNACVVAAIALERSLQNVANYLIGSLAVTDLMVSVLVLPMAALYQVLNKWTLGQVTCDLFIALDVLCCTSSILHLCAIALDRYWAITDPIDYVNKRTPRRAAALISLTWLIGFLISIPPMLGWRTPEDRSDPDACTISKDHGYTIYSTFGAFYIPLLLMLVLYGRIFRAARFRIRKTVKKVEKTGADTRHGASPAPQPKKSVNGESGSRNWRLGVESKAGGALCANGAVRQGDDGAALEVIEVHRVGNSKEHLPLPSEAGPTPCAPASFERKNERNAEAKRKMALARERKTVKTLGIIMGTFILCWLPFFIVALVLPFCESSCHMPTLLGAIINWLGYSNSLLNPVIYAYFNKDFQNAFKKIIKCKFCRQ
In kind it is functional, cell-based.

Test [5] concerns the target T4, 5-hydroxytryptamine receptor 1A. In kind it is functional, cell-based. This is another data set of the same source.
The target of test [6] is T5, Muscarinic acetylcholine receptor M2 (Homo sapiens, UniProt P08172).
T5 sequence (P08172 whole entry): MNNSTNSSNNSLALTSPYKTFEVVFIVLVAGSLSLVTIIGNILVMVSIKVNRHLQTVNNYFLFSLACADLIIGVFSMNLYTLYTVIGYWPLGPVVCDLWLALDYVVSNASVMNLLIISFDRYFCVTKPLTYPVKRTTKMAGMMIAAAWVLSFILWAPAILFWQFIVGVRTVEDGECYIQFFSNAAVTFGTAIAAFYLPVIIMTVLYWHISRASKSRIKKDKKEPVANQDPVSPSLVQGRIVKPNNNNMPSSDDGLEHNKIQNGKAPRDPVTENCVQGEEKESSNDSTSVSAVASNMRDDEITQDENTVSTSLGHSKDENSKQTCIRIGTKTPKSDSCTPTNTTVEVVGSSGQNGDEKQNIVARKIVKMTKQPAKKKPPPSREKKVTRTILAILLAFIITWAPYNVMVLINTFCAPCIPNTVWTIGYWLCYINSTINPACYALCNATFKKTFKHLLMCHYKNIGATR
The format is functional, cell-based.
Note: assay procedure not described here.

Melanocortin receptor 3, sequence (P41968 whole entry): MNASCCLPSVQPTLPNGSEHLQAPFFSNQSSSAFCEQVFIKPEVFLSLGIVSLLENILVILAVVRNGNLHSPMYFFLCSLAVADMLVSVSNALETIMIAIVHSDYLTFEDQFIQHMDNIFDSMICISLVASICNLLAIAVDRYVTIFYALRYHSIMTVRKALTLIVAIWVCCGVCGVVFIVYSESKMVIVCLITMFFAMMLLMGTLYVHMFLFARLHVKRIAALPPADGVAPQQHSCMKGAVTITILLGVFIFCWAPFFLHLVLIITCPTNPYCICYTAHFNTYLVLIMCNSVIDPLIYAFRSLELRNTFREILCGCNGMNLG
Adenosine receptor A2a, sequence (P29274 whole entry): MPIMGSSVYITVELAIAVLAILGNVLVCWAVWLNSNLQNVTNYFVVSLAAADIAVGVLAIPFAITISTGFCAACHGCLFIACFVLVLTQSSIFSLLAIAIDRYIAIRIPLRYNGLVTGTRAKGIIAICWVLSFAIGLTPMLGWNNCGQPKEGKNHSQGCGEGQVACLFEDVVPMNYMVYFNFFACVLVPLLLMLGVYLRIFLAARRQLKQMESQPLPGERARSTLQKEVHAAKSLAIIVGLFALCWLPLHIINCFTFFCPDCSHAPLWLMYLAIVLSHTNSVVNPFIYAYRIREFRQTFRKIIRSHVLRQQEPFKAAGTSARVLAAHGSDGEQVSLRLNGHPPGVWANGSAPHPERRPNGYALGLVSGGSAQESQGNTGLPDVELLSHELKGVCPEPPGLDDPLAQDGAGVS
Acetylcholinesterase, sequence (P22303 whole entry): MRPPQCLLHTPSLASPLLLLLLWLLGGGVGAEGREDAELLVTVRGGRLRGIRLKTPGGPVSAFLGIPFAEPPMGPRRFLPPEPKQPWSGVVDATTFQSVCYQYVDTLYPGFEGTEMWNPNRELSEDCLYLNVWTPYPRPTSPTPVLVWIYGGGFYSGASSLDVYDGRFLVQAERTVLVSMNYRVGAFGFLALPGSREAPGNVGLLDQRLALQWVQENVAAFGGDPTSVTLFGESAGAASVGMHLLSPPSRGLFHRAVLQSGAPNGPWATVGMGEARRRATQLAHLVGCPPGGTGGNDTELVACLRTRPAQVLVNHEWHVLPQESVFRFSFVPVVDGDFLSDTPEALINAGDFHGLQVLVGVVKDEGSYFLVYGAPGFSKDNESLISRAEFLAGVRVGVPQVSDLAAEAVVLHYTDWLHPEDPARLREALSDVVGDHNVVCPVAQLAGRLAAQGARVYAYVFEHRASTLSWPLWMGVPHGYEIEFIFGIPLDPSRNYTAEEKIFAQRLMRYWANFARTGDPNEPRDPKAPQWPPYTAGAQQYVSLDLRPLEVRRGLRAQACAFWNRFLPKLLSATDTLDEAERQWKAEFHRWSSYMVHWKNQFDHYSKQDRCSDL
Motilin receptor, sequence (O43193 whole entry): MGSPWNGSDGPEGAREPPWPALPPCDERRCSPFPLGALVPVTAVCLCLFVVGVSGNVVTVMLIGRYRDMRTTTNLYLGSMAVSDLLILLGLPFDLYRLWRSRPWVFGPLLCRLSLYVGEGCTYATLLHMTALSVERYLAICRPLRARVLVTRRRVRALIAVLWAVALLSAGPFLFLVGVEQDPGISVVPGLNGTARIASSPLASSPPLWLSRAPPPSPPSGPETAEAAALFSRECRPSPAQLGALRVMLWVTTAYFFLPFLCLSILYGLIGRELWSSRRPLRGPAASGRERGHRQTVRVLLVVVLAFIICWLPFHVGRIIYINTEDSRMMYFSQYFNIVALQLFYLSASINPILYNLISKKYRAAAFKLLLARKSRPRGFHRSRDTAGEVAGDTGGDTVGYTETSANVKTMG

Take `CCC(=O)O[C@]1(C(=O)CCl)[C@@H](C)C[C@H]2[C@@H]3C[C@H](F)C4=CC(=O)C=C[C@]4(C)[C@@]3(F)[C@@H](O)C[C@@]21C` [HALOBETASOL PROPIONATE]: the AC50 (on Acetylcholinesterase; in [1]) was greater than 30 µM in each case.
With `CCOC(=O)N1CSC[C@H]1C(=O)O` [TELMESTEINE], the half-maximal activity concentration (AC50) (on Acetylcholinesterase; in [1]) was greater than 30 µM throughout.
Take `Cc1ncc(COP(=O)(O)O)c(C=O)c1O` [PYRIDOXAL PHOSPHATE ANHYDROUS]: the AC50 (at Acetylcholinesterase; in test [1]) was greater than 30 µM throughout.
With `CCCc1nc(C(C)(C)O)c(C(=O)O)n1Cc1ccc(-c2ccccc2-c2nnn[nH]2)cc1` [OLMESARTAN], the AC50 (on Acetylcholinesterase; in test [1]) was greater than 30 µM each time.
`Cc1ccccc1N1CCN(CCc2nnc3n2CCCC3)CC1` [DAPIPRAZOLE]: the AC50 (at Acetylcholinesterase; in test [1]) was greater than 30 µM in each case.
Consider `CC(N)Cc1ccc(O)cc1` (configuration not stated) [HYDROXYAMPHETAMINE], for which the AC50 (on Acetylcholinesterase; in [1]) was greater than 30 µM throughout.
Turning to `Cc1cc(NC(=O)C2=C(O)c3ccccc3S(=O)(=O)N2C)no1` [ISOXICAM], the half-maximal activity concentration (AC50) (on Acetylcholinesterase; in test [1]) was greater than 30 µM in each case.
Take `C=C1CC[C@H](O)C/C1=C/C=C1\CCC[C@]2(C)[C@@H]([C@H](C)/C=C/[C@H](C)C(C)C)CC[C@@H]12` [ERGOCALCIFEROL]: the concentration at half-maximal activity (AC50) (as a rule, the midpoint of the concentration-response curve, whichever way the signal moves) at Acetylcholinesterase was greater than 30 µM.
For the molecule `CC[C@@H]([C@H](C)O)n1ncn(-c2ccc(N3CCN(c4ccc(OC[C@@H]5CO[C@@](Cn6cncn6)(c6ccc(F)cc6F)C5)cc4)CC3)cc2)c1=O` [POSACONAZOLE], the AC50 (on Acetylcholinesterase; in [2]; in test [1]; at Melanocortin receptor 3) was greater than 30 µM each time.
Turning to `NC(=O)OCC(O)COc1ccc(Cl)cc1` (configuration not stated) [CHLORPHENESIN CARBAMATE], the AC50 (on Acetylcholinesterase; in [1]) was greater than 30 µM each time.
Consider `NCC(CC(=O)O)c1ccccc1` (configuration not stated) [PHENIBUT], for which the half-maximal activity concentration (AC50) (at Acetylcholinesterase; in test [1]) was greater than 30 µM throughout.
Consider `C=CCSCC1Nc2cc(Cl)c(S(N)(=O)=O)cc2S(=O)(=O)N1` (configuration not stated) [ALTHIAZIDE], for which the AC50 (on Acetylcholinesterase; in [1]) was greater than 30 µM each time.
Regarding `O=C(O)c1cn(C2CC2)c2cc(N3CCNCC3)c(F)cc2c1=O` [CIPROFLOXACIN], the half-maximal activity concentration (AC50) was greater than 30 µM at Adenosine receptor A1, greater than 30 µM at Adenosine receptor A2a, greater than 30 µM at Melanocortin receptor 3 and greater than 10 µM on Motilin receptor.
Regarding `CN1C(=O)/C(=N\NC(N)=S)c2ccccc21` [METHISAZONE], the half-maximal activity concentration (AC50) (at Acetylcholinesterase; in [1]) was greater than 30 µM each time.
Regarding `Cc1c(N(C)CS(=O)(=O)O)c(=O)n(-c2ccccc2)n1C` [METAMIZOLE], the AC50 (on Acetylcholinesterase; in test [1]) was greater than 30 µM throughout.
Consider `COc1ccc(CN(CCN(C)C)c2ccccn2)cc1` [PYRILAMINE], for which the AC50 at Acetylcholinesterase was greater than 30 µM; in [1], 9.59 µM.
Turning to `CCN(CC)C(=S)S` [DITIOCARB], on Acetylcholinesterase, the half-maximal activity concentration (AC50) is greater than 10 µM.
The same measure, in the same setting: the result for `COc1cc(N2CCC(N3CCN(C)CC3)CC2)ccc1Nc1ncc(Cl)c(Nc2ccccc2P(C)(C)=O)n1` [BRIGATINIB] reads greater than 30 µM.
On to `COC(=O)c1ccc(O)cc1` [METHYLPARABEN], for which the AC50 (on Acetylcholinesterase; in test [1]) was greater than 30 µM throughout.
On to `COc1cc2c(cc1OC)CC(=O)N(CCCN(C)C[C@H]1Cc3cc(OC)c(OC)cc31)CC2` [IVABRADINE], for which the AC50 on Acetylcholinesterase is greater than 30 µM; in test [1] it was 30 µM.
As to `C[C@H](Cc1cc2c(c(C(N)=O)c1)N(CCCO)CC2)NCCOc1ccccc1OCC(F)(F)F` [SILODOSIN], the AC50 at Acetylcholinesterase was greater than 30 µM; in test [3], greater than 30 µM; in test [1], 12.8 µM.
Regarding `CN(C)CCOC(c1ccccc1)c1ccc(Br)cc1` (configuration not stated) [BROMODIPHENHYDRAMINE], the half-maximal activity concentration (AC50) on Acetylcholinesterase was greater than 30 µM.
Same read-out and setting: the result for `CCN(CCCc1ccccc1)CCCc1ccccc1` [ALVERINE] reads greater than 30 µM.
For the molecule `c1ccc2c(c1)CCc1ccccc1N2C1CN2CCC1CC2` (configuration not stated) [QUINUPRAMINE], the AC50 was greater than 30 µM at Acetylcholinesterase and 12 µM in test [1].
For `Cc1cc(N)c2ccccc2[n+]1CCCCCCCCCC[n+]1c(C)cc(N)c2ccccc21`, in that order: 0.0264 µM and 0.133 µM.
In the case of `CC(C)(C)NC[C@H](O)COc1cccc2c1CCCC2=O` [LEVOBUNOLOL], the half-maximal activity concentration (AC50) (at Acetylcholinesterase; in test [1]) was greater than 30 µM throughout.
Take `CC(=O)O[C@]1(C(C)=O)CC[C@H]2[C@@H]3C=C(Cl)C4=CC(=O)CC[C@]4(C)[C@H]3CC[C@@]21C` [CHLORMADINONE ACETATE]: the AC50 (on Acetylcholinesterase; in test [1]) was greater than 30 µM each time.
Regarding `CC1=CCC(C(C)(C)O)CC1O` (configuration not stated) [SOBREROL], the AC50 on Acetylcholinesterase was greater than 30 µM.
Turning to `Cc1cnc(C(=O)NCCc2ccc(S(=O)(=O)NC(=O)NC3CCCCC3)cc2)cn1` [GLIPIZIDE], the concentration at half-maximal activity (AC50) at Adenosine receptor A1 is greater than 30 µM; on Adenosine receptor A2a it was greater than 30 µM; in test [3], greater than 10 µM; in [2], greater than 10 µM; at Histamine H2 receptor, greater than 10 µM; in [4], greater than 10 µM. Also, the AC50 is greater than 10 µM in test [5], greater than 30 µM on Melanocortin receptor 3 and greater than 10 µM on Motilin receptor.
For the molecule `Cc1cc(C(C)(C)C)cc(C)c1CC1=NCCN1` [XYLOMETAZOLINE], the AC50 is greater than 30 µM at Adenosine receptor A1; greater than 30 µM at Adenosine receptor A2a; greater than 30 µM in [3]; 0.239 µM in test [2]; greater than 30 µM in test [6]; greater than 30 µM at Histamine H2 receptor. Further, the half-maximal activity concentration (AC50) in [4] is 0.0178 µM; in test [1], 5.2 µM; at Melanocortin receptor 3, greater than 30 µM; on Motilin receptor, greater than 30 µM.
As for `CN(C)CCCNc1c2ccccc2nc2cccc([N+](=O)[O-])c12` [NITRACRINE], the AC50 on Adenosine receptor A1 was greater than 30 µM; on Adenosine receptor A2a it was 17 µM; in [3] it was greater than 30 µM; in test [2] it was 5.2 µM; in test [6], greater than 30 µM; in [4], greater than 30 µM. Further, the figures for the AC50 (in test [1]; at Melanocortin receptor 3; on Motilin receptor) were 0.46 µM, greater than 30 µM and greater than 30 µM, respectively.
Take `CCOC(=O)[C@H](CCc1ccccc1)N[C@@H](C)C(=O)N(CC(=O)O)C1Cc2ccccc2C1`: the AC50 (at Acetylcholinesterase; in test [1]) was greater than 30 µM in each case.
Regarding `CC(C)N(CCNC(=O)CN1CCCC1=O)C(C)C`, the AC50 (at Acetylcholinesterase; in [1]) was greater than 30 µM throughout.
